The test system of the test is Monocotyledonous and dicotyledonous test plants. Put plainly: Herbicidal action, application pre-emergence (Example B1). Type of test: in vivo. Details: key: 10=total damage to plant; 0=no damage to plant. The conditions noted are these: 1000 g/ha, evaluated after 9 or 13 days; for AGSTE herbicidal action (damage score 0-10): Agrostis-tenius; for AMARE herbicidal action (damage score 0-10): Amaranthus retroflexus; for DIGSA herbicidal action (damage score 0-10): Digitaria sanguinalis; for POATR herbicidal action (damage score 0-10): Poa trivialis; for SETIT herbicidal action (damage score 0-10): Setaria italica. As for the experimental part: Monocotyledonous and dicotyledonous test plants were sown in sterilised standard soil in seed trays each having 96 cells. After one day (pre-emergence) under controlled conditions in a climatic chamber (cultivation at 23/17° C., day/night; 13 hours light; 50-60% humidity; after application at 24/19° C., day/night), the plants were treated with an aqueous spray solution of 1000 mg/l of the active ingredient used (including 10% DMSO as solvent). The plants were grown on in the climatic chamber until the test was evaluated (10=total damage to plant, 0=no damage to plant) after 9 or 13 days.

For the compound `Cn1cc(C[S+]([O-])C2=NOC(C)(C)C2F)c(C(F)(F)F)n1` (mixture of isomers) [2.33], the “AGSTE herbicidal action (damage score 0-10)” value (from here on “AGSTE herbicidal action”) is 10, the “AMARE herbicidal action (damage score 0-10)” value (from here on “AMARE herbicidal action”) is 6, the “DIGSA herbicidal action (damage score 0-10)” value (from here on “DIGSA herbicidal action”) stood at 9 and the “POATR herbicidal action (damage score 0-10)” value (from here on “POATR herbicidal action”) came out at 9. Further, the “SETIT herbicidal action (damage score 0-10)” value (from here on “SETIT herbicidal action”) worked out at 9.
As for `Cc1nc(C(F)(F)F)ccc1C[S+]([O-])C1=NOC(C)(C)C1F` (mixture of isomers) [3.02], the “AGSTE herbicidal action” value was 10, the “AMARE herbicidal action” value is recorded as 7, the “DIGSA herbicidal action” value was 9 and the “POATR herbicidal action” value came to 10. In addition, the “SETIT herbicidal action” value worked out at 8.
Take `CC1(C)ON=C([S+]([O-])Cc2cccnc2Cl)C1F` (mixture of isomers) [3.05]: the “AGSTE herbicidal action” value was found to be 9, the “AMARE herbicidal action” value came out at 10, the “DIGSA herbicidal action” value is recorded as 8 and the “POATR herbicidal action” value was determined as 10.
For `Cc1nc(C(F)(F)F)ccc1CS(=O)(=O)C1=NOC(C)(C)C1F` (centres unmarked) [3.03], the “AGSTE herbicidal action” value was 10, the “AMARE herbicidal action” value is given as 10, the “DIGSA herbicidal action” value is 0 and the “POATR herbicidal action” value is given as 10. In addition, the “SETIT herbicidal action” value amounted to 9.
Turning to `Cn1nc(C[S+]([O-])C2=NOC(C)(C)C2F)c(C(F)(F)F)c1C#N` (single isomer, unassigned) [4.08], the “AGSTE herbicidal action” value is 10, the “AMARE herbicidal action” value was 5, the “DIGSA herbicidal action” value is 9 and the “POATR herbicidal action” value was determined as 8.
The matching figures for `CC(C)n1nc(C[S+]([O-])C2=NOC(C)(C)C2F)c(C(F)(F)F)n1` (single isomer, unassigned) [7.25]: 10, 9, 9 and 10.
As to `Cn1nc(C(F)(F)F)c(CS(=O)(=O)C2=NOC(C)(C)C2Cl)c1OC(F)F` (centres unmarked) [2.18], the “AGSTE herbicidal action” value turned out to be 10, the “AMARE herbicidal action” value worked out at 8, the “DIGSA herbicidal action” value was found to be 5 and the “POATR herbicidal action” value was found to be 9. Besides, the “SETIT herbicidal action” value was found to be 8.
Take `Cc1nn(C)nc1C[S+]([O-])C1=NOC(C)(C)C1F` (single isomer, unassigned) [7.02]: the “AGSTE herbicidal action” value was determined as 10, the “AMARE herbicidal action” value came out at 0, the “DIGSA herbicidal action” value was 9 and the “POATR herbicidal action” value was determined as 10. Moreover, the “SETIT herbicidal action” value was found to be 9.
Consider `CC1(C)ON=C(S(=O)(=O)C(Cl)c2ccccc2OC(F)(F)F)C1F` (centres unmarked) [Compound No. 1.13, 3-[chloro-(2-trifluoromethoxy-phenyl)-methanesulfonyl]-4-fluoro-5,5-dimethyl-4,5-dihydro-isoxazole], for which the “AGSTE herbicidal action” value is recorded as 10, the “AMARE herbicidal action” value stood at 9, the “DIGSA herbicidal action” value amounted to 9 and the “POATR herbicidal action” value is 10. The “SETIT herbicidal action” value is recorded as 9.
`Cn1nc(OC(F)F)c(C[S+]([O-])C2=NOC(C)(C)C2F)c1C(F)(F)F` (single isomer, unassigned) [2.29]: the “AGSTE herbicidal action” value worked out at 9, the “AMARE herbicidal action” value worked out at 8, the “DIGSA herbicidal action” value is on record as 0 and the “POATR herbicidal action” value was determined as 10. For the same compound, the “SETIT herbicidal action” value was 9.

The values are drawn from US20090042726A1, “Novel Herbicides” (SYNGENTA LIMITED, priority 2005, published 2009).
